Measurements from US20260033491A1, “FUNGAL SPORE FORMULATIONS INCLUDING CARRIER FLUIDS” (priority 2018, published 2026).
Where two headings read alike, the source gives them in different places. Marks after values point to notes of the source that are not given here.

Assays:
Type in all cases: cell-based
[1] = system: Beauveria bassiana spores; assay: Spore viability (germination rate) of Beauveria bassiana spores dispersed in fluid and stored at 30° C.
Method: (§1) 1.5 g of Beauveria bassiana pure spore powder were transferred into a formulation vessel (IKA Type DT-20 mixing vessel with dispersion tool for Ultra Turrax) using a sterile spoon. 13.5 mL of fluid were added into the respective formulation vessel and dispersed using ultra turrax tube drive control for 1 min at 3000 rpm; change direction after 30 sec. After this 2.8 mL were transferred in four sample bottles (Wheaton Serum vial, Type I) leaving little headspace and closed tight using crimpneck caps (Macherey—Nagel type N 13) Afterwards all sample bottles were transferred to an incubator set at 30° C. and stored for a given time.
(§2) In regular intervals a sample was retrieved from the storage location and analyzed for spore viability. Therefore the original samples were thoroughly homogenized. Aliquots of 0.25 g or 250 μL of each sample are transferred into 50 mL falcon tubes. The tubes were filled up to 25 g using a sterile aqueous solution containing 2% Tween 80 and homogenized by vortexing to achieve the first dilution step (1:100 dilution). This dilution was used for further dilution and spotting on agar.
(§3) For these samples, an alternative dispersion/dilution method was applied where the oil phase is stripped from the spores first: 0.25 g or 250 μL of sample are weighted into a 2 mL Eppendorf tube, and 0.5 mL of 2% Tween 80 is added, and the mixture is transferred into an Eppendorf centrifuge where it is centrifuged for 1 min at 10.000 rpm. The supernatant (=upper oily phase) is discarded by using a pipette. […] 250 μL or 0.25 g of each sample are transferred into a sterile 50 mL Falcon tube. The tubes were filled up to 25 g using a sterile aqueous solution containing 2% Tween 80 and homogenized by vortexing to achieve the first dilution step (1:100 dilution). This dilution is used for further dilution and spotting on agar.
(§4) For evaluation of spore germination rate prepare a 1:15000 dilution based on the 1:100 dilution achieved by multiple automated dilution (pipetting robot, 96 well plate). Afterwards 12×12 cm agar plates are taken and spotted with 10 times 5 μL of each sample using an automated 12-Channel pipet. Wait until liquid is soaked up by agar and transfer agar plate to an incubator and incubate at 20° C. for 17 hours. Open the plate and place it under the microscope. Randomly chose one area per spot and record the number of germinated and non-germinated spores that are within the designated field. At least 200 spores per sample need to be evaluated. If needed count more than one field per spot.

[2] = system: Purpureocillium lilacinum spores; assay: Spore viability (germination rate) of Purpureocillium lilacinum spores dispersed in fluid and stored at 30° C.
Method: as §1, with “3” for “1.5”, “Purpureocillium lilacinum” for “Beauveria bassiana”, “12” for “13.5”, “13).” for “13)”
In regular intervals a sample was retrieved from the storage location and analyzed for spore viability. For this purpose, the original samples were thoroughly homogenized. Aliquots of 0.25 g or 250 μL of each sample were transferred into 50 mL falcon tubes. The tubes were filled up to 25 g using a sterile aqueous solution containing 2% Tween 80 and homogenized by vortexing to achieve the first dilution step (1:100 dilution). This dilution was used for further dilution and spotting on agar.
as §3, with “oil phase was stripped from” for “oil phase is stripped from”, “each sample were transferred into” for “each sample are transferred into”, “This dilution was used for” for “This dilution is used for”
as §4, with “a 1:30000” for “a 1:15000”, “plates were” for “plates are”, “at 25°” for “at 20°”

[3] = system: Penicillium bilaii spores; assay: Spore viability (germination rate) of Penicillium bilaii spores dispersed in fluid and stored at 30° C.
Method: as §1, with “Penicillium bilaii” for “Beauveria bassiana”
as §2
Not all samples mixed well or mixed at all in 2% Tween 80. For these samples, an alternative dispersion/dilution method was applied where the oil phase is stripped from the spores first: 0.25 g or 250 μL of sample are weighted into a 2 mL Eppendorf tube, and 0.5 mL of 2% Tween 80 is added, and the mixture is transferred into an Eppendorf centrifuge where it is centrifuged for 1 min at 10.000 rpm. The supernatant (=upper oily phase) is discarded by using a pipette. Afterwards 250 μL of Breakthru S 240 are added and the spores are well dispersed. 250 μL or 0.25 g of each sample are transferred into a sterile 50 mL Falcon tube. The tubes were filled up to 25 g using a sterile aqueous solution containing 2% Tween 80 and homogenized by vortexing to achieve the first dilution step (1:100 dilution). This dilution is used for further dilution and spotting on agar.
as §4

[4] = P. lilacinum spores in fluid, day 1
[5] = P. lilacinum spores in fluid, storage at 30° C., 35-40 d
[6] = P. lilacinum spores in fluid, storage at 30° C., 87-92 d
[7] = Beauveria bassiana spores in fluid, day 1
[8] = Beauveria bassiana spores in fluid, storage at 30° C., 14 d
[9] = Beauveria bassiana spores in fluid, storage at 30° C., 35 d
[10] = Penicillium bilaii spores in fluid, 1-2 d
[11] = Penicillium bilaii spores in fluid, storage at 30° C., 41-43 d
[12] = Penicillium bilaii spores in fluid, storage at 30° C., 83-85 d
[13] = P. lilacinum spores in fluid, storage at 30° C., 12-15 d
[14] = P. lilacinum spores in fluid, storage at 30° C., 27-28 d
[15] = P. lilacinum spores in fluid, storage at 30° C., 51-55 d
[16] = P. lilacinum spores in fluid, storage at 30° C., 7 m

**Q.** With “Neopentylglycol dicocoate [Radialube 7302]” as the compound, how does the “spore viability [%] after 5 w (35 d)” value [1] read?
**A.** 52.7%

**Q.** With “Trimethylolpropane Tricocoate [Radialube 7359]” as the compound, how does the “spore viability [%] after 1 m (27-28 d)” value [2] read?
**A.** 87.8%

**Q.** What about the “spore viability [%] after 2 m (51-55 d)” value [2] of the same compound?
**A.** 87.5%

**Q.** And the “spore viability [%] after 2 w (12-15 d)” value [2]?
**A.** 60.6^# %

**Q.** And the “spore viability [%] at day 1” value [2]?
**A.** 58.0^# %

**Q.** What about the “spore viability [%] taken after 7 m of storage” value [2] of the same compound?
**A.** 87.3* %

**Q.** What does the source list for `CCCCOC(=O)CC(CC(=O)OCCCC)(OC(C)=O)C(=O)OCCCC` [Acetyltributylcitrat, O-Acetyl citric acid tributyl ester]?
**A.** spore viability [%] at day 1 [2, 4]: 98.9%; spore viability [%] after 5-6 w (35-40 d) [2, 5]: 98.0%; spore viability [%] after 3 m (87-92 d) [2, 6]: 87.5%; spore viability [%] at day 1 [1, 7]: 85.5%; spore viability [%] after 2 w (14 d) [1, 8]: 76.7%; spore viability [%] after 5 w (35 d) [1, 9]: 58.8%; spore viability [%] initial (1-2 d) [3, 10]: 98.4%; spore viability [%] 6 w@30° C. (41-43 d) [3, 11]: 83.8%; spore viability [%] 3 m@30° C. (83-85 d) [3, 12]: 60.6%

**Q.** Which results are given for `CCCCCCCC/C=C\CCCCCCCC(=O)OCC(CC)CCCC` (stereo not drawn) [Radialube 7130, 2-Ethylhexyl oleate]?
**A.** spore viability [%] after 2 w (12-15 d) [2, 13]: 98.5%; spore viability [%] after 1 m (27-28 d) [2, 14]: 94.3%; spore viability [%] after 2 m (51-55 d) [2, 15]: 87.9%

**Q.** What does the source list for `CCCCCCCCCCCC(=O)OCC(CC)CCCC` (stereo not drawn) [Radia 7127, 2-Ethylhexyl laurate]?
**A.** spore viability [%] at day 1 [2, 4]: 99.1%; spore viability [%] taken after 7 m of storage [2, 16]: 40.6* %; spore viability [%] after 2 w (12-15 d) [2, 13]: 99.0%; spore viability [%] after 1 m (27-28 d) [2, 14]: 98.3%; spore viability [%] after 2 m (51-55 d) [2, 15]: 88.4%; spore viability [%] at day 1 [1, 7]: 91.3%; spore viability [%] after 2 w (14 d) [1, 8]: 76.3%; spore viability [%] after 5 w (35 d) [1, 9]: 68.4%; spore viability [%] initial (1-2 d) [3, 10]: 97.1%; spore viability [%] 6 w@30° C. (41-43 d) [3, 11]: 96%; spore viability [%] 3 m@30° C. (83-85 d) [3, 12]: 77.9%

**Q.** What does the source list for “Trimethylolpropane Trioleate [Radialube 7361]”?
**A.** spore viability [%] after 2 w (12-15 d) [2, 13]: 97.2%; spore viability [%] after 1 m (27-28 d) [2, 14]: 92.3%; spore viability [%] after 2 m (51-55 d) [2, 15]: 85.4%

**Q.** What does the source list for `CCCCCC[C@@H](O)C/C=C\CCCCCCCC(=O)OC` [Radia 7081, Ricinolic acid methylester]?
**A.** spore viability [%] after 1 m (27-28 d) [2]: 95.8%; spore viability [%] after 2 m (51-55 d) [2]: 88.6%; spore viability [%] after 2 w (12-15 d) [2]: 94.7%

**Q.** How did the “spore viability [%] at day 1” value [2, 4] turn out when `CC(C)OC(=O)CCCCC(=O)OC(C)C` [Crodamol DA, Diisopropyl adipate] was run?
**A.** 98.2%

**Q.** What about the “spore viability [%] taken after 7 m of storage” value [2, 16] of the same compound?
**A.** 51.3* %

**Q.** What about the “spore viability [%] after 2 w (12-15 d)” value [2, 13] of the same compound?
**A.** 94.3%

**Q.** What about the “spore viability [%] after 1 m (27-28 d)” value [2, 14] of the same compound?
**A.** 95.0%

**Q.** And the “spore viability [%] after 2 m (51-55 d)” value [2, 15]?
**A.** 68.2%

**Q.** What does the source list for “Fatty acid monoglyceride diacetate [Radia 7909]”?
**A.** spore viability [%] after 3 m (87-92 d) [2]: 78.5%; spore viability [%] after 5-6 w (35-40 d) [2]: 96.5%; spore viability [%] at day 1 [2]: 98.1%; spore viability [%] after 2 w (14 d) [1]: 11.5%; spore viability [%] after 5 w (35 d) [1]: 18.1%; spore viability [%] at day 1 [1]: 75.1%; spore viability [%] 3 m@30° C. (83-85 d) [3]: 42.0%; spore viability [%] 6 w@30° C. (41-43 d) [3]: 75.6%; spore viability [%] initial (1-2 d) [3]: 90.6%

**Q.** With `CCCCCOC(=O)CC` [Pentyl Propionate, Propionic acid Pentyl ester] as the compound, how does the “spore viability [%] at day 1” value [2, 4] read?
**A.** 99.1%

**Q.** And the “spore viability [%] after 5-6 w (35-40 d)” value [2, 5]?
**A.** 94.6%

**Q.** What about the “spore viability [%] after 3 m (87-92 d)” value [2, 6] of the same compound?
**A.** 16.1%

**Q.** Which results are given for `CC(C)CCCCCCOC(=O)C1CCCCC1C(=O)OCCCCCCC(C)C` (stereo not drawn) [Agnique AE829, 1,2-Cyclohexane dicarboxylic acid diisononyl ester]?
**A.** spore viability [%] after 2 w (12-15 d) [2, 13]: 97.3%; spore viability [%] after 1 m (27-28 d) [2, 14]: 96.5%; spore viability [%] after 2 m (51-55 d) [2, 15]: 89.8%; spore viability [%] at day 1 [1, 7]: 89.7%; spore viability [%] after 2 w (14 d) [1, 8]: 74.9%; spore viability [%] after 5 w (35 d) [1, 9]: 57.8%; spore viability [%] initial (1-2 d) [3, 10]: 95.3%; spore viability [%] 6 w@30° C. (41-43 d) [3, 11]: 89.4%; spore viability [%] 3 m@30° C. (83-85 d) [3, 12]: 71.9%

**Q.** How did the “spore viability [%] after 3 m (87-92 d)” value [2] turn out when Sorbitan trioleate [Radiasurf 7355] was run?
**A.** 64.1%

**Q.** And the “spore viability [%] after 5-6 w (35-40 d)” value [2]?
**A.** 96.4%

**Q.** What about the “spore viability [%] at day 1” value [2] of the same compound?
**A.** 98.3%

**Q.** What about the “spore viability [%] after 2 w (14 d)” value [1] of the same compound?
**A.** 71.3%

**Q.** And the “spore viability [%] after 5 w (35 d)” value [1]?
**A.** 60.4%

**Q.** With “Trimethylolpropane Triisostearate [Radia 7380]” as the compound, how does the “spore viability [%] after 2 w (12-15 d)” value [2, 13] read?
**A.** 96.5%

**Q.** What about the “spore viability [%] after 1 m (27-28 d)” value [2, 14] of the same compound?
**A.** 89.3%

**Q.** And the “spore viability [%] after 2 m (51-55 d)” value [2, 15]?
**A.** 86.0%

**Q.** What does the source list for `CCCCCCCC/C=C\CCCCCCCC(=O)OCC(CC)CCCC` (stereo not drawn) [Radia 7331, 2-Ethylhexyl oleate]?
**A.** spore viability [%] after 2 w (12-15 d) [2, 13]: 97.9%; spore viability [%] after 1 m (27-28 d) [2, 14]: 95.9%; spore viability [%] after 2 m (51-55 d) [2, 15]: 85.9%; spore viability [%] at day 1 [1, 7]: 91.5%; spore viability [%] after 2 w (14 d) [1, 8]: 81.4%; spore viability [%] after 5 w (35 d) [1, 9]: 66.3%; spore viability [%] initial (1-2 d) [3, 10]: 97.1%; spore viability [%] 6 w@30° C. (41-43 d) [3, 11]: 91.4%; spore viability [%] 3 m@30° C. (83-85 d) [3, 12]: 75.7%
